For this assay, the target named is T1, BTK (Homo sapiens, UniProt Q06187).
T1 construct: endogenous in cells; host or cells: TMD-8 cells
Briefly: BTK degradation in TMD-8 cells, HTRF assay after 6 h treatment. In kind it is cell-based. As to conditions: for DC50: IC50 (DC50) of BTK degradation; for Dmax: TMD8, maximum percentage of inhibition (degradation). How it is done: TMD-8 cells are treated with compounds diluted in 0.2% DMSO, dilution is done according to the following protocol: (1) make 500× stock solution in DMSO from 1 mM by 6-fold dilution, total 8 doses were included; (2) make 2× solution in cell culture medium by transferring 0.5 μl 500× stock solution into 125 μl medium; (3) 15 μl of 2× solution is added to cells and incubate for 6 h.
After 6 h treatment, add 10 μl 4×lysis buffer to each well; seal the plate and incubate 30 min at room temperature on a plate shaker; Once the cells are lysed, 16 μL of cell lysate are transferred to a PE 384-well HTRF detection plate; 4 μL of pre-mixed HTRF antibodies are added to each well; Cover the plate with a plate sealer, spin 1000 rpm for 1 min, Incubate overnight at room temperature; Read on BMG PheraStar with HTRF protocol (337 nm-665 nm-620 nm).
The IC50 (DC50) value of a compound can be obtained by fitting the following equation
Y=Bottom+(TOP−Bottom)/(1+((IC50/X)^hillslope))
Wherein, X and Y are known values, and IC50, Hillslope, Top and Bottom are the parameters obtained by fitting with software. Y is the inhibition percentage (calculated from the equation), X is the concentration of the compound; IC50 is the concentration of the compound when the 50% inhibition is reached. The smaller the IC50 value is, the stronger the inhibitory ability of the compound is. Vice versa, the higher the IC50 value is, the weaker the ability the inhibitory ability of the compound is; Hillslope represents the slope of the fitted curve, generally around 1*; Bottom represents the minimum value of the curve obtained by data fitting, which is generally 0%±20%; Top represents the maximum value of the curve obtained by data fitting, which is generally 100%±20%. The experimental data were fitted by calculating and analyzing with Dotmatics data analysis software.
Background: TR-FRET usually uses a lanthanide donor and a delayed reading to cut background.

Drawing on patent publication US20230322761A1, “DEGRADATION OF BRUTON'S TYROSINE KINASE (BTK) BY CONJUGATION OF BTK INHIBITORS WITH E3 LIGASE LIGAND AND METHODS OF USE” (BEIGENE, LTD., priority 2020, published 2023), this text covers DC50 and Dmax for 13 compounds.

As usually defined, the DC50 is the concentration giving 50% degradation. Low values mean degradation at low concentration, high ones degradation only at high concentration. For orientation: Dmax means the greatest extent of degradation seen. A low value points to shallow degradation.

A value given as a limit tells only on which side of the number the result lay.

T1 sequence (Q06187 whole entry): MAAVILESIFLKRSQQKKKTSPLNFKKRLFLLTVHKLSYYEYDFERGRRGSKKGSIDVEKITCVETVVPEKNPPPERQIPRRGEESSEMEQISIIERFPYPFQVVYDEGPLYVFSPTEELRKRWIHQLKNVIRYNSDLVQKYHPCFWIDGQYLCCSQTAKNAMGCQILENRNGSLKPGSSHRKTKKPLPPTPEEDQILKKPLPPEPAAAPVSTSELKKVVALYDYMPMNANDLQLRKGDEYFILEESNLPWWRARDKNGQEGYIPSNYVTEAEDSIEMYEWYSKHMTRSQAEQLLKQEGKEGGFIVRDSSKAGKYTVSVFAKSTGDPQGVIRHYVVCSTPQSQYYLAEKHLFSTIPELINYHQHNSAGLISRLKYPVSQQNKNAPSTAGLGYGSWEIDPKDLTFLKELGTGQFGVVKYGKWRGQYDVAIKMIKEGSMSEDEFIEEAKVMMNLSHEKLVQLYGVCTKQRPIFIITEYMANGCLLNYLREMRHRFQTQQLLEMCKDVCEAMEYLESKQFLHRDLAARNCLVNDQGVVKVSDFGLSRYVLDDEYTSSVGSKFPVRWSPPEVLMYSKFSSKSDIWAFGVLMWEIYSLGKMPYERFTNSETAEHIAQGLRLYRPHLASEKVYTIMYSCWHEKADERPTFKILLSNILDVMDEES

Regarding `CC(C)(C)c1nc(C(=O)NCc2ccc(-c3n[nH]c4ncc(-c5ccc(C6CCN(CC7CCN(c8ccc(N9CCC(=O)NC9=O)cc8)CC7)CC6)cc5)cc34)cc2F)no1` [Example 15, 5-(tert-butyl)-N-(4-(5-(4-(1-((1-(4-(2,4-dioxotetrahydropyrimidin-1(2H)-yl)phenyl)piperidin-4-yl)methyl)piperidin-4-yl)phenyl)-1H-pyrazolo[3,4-b]pyridin-3-yl)-2-fluorobenzyl)-1,2,4-oxadiazole-3-carboxamide], it took 6.38 nM to reach half-maximal degradation (DC50) and the greatest degradation seen (Dmax) amounted to 94.9%.

Regarding `CC(C)(C)c1noc(C(=O)NCc2ccc(-c3n[nH]c4ncc(-c5ccc(C6CCN(CCC7CCN(c8ccc(N9CCC(=O)NC9=O)c(F)c8)CC7)CC6)cc5)cc34)cc2F)n1` [Example 16, 3-(tert-butyl)-N-(4-(5-(4-(1-(2-(1-(4-(2,4-dioxotetrahydropyrimidin-1(2H)-yl)-3-fluorophenyl)piperidin-4-yl)ethyl)piperidin-4-yl)phenyl)-1H-pyrazolo[3,4-b]pyridin-3-yl)-2-fluorobenzyl)-1,2,4-oxadiazole-5-carboxamide], the half-maximal degradation concentration (DC50) is 9.04 nM and the greatest degradation seen (Dmax) worked out at 96.4%.

Regarding `CC(C)(C)c1noc(C(=O)NCc2ccc(-c3n[nH]c4ncc(-c5ccc(N6CCN(CCC7CCN(c8ccc(N9CCC(=O)NC9=O)c(F)c8)CC7)CC6)cc5)cc34)cc2F)n1` [Example 17, 3-(tert-butyl)-N-(4-(5-(4-(4-(2-(1-(4-(2,4-dioxotetrahydropyrimidin-1(2H)-yl)-3-fluorophenyl)piperidin-4-yl)ethyl)piperazin-1-yl)phenyl)-1H-pyrazolo[3,4-b]pyridin-3-yl)-2-fluorobenzyl)-1,2,4-oxadiazole-5-carboxamide], the half-maximal degradation concentration (DC50) was 5.9 nM and the Dmax turned out to be 96.4%.

Regarding `COc1ccc(C(=O)N2CCC(c3ccc(-c4cnc5[nH]nc(-c6ccc(CNC(=O)c7nc(C(C)(C)C)no7)c(F)c6)c5c4)cc3)CC2)cc1N1CCC(=O)NC1=O` [Example 18, 3-(tert-butyl)-N-(4-(5-(4-(1-(3-(2,4-dioxotetrahydropyrimidin-1(2H)-yl)-4-methoxybenzoyl)piperidin-4-yl)phenyl)-1H-pyrazolo[3,4-b]pyridin-3-yl)-2-fluorobenzyl)-1,2,4-oxadiazole-5-carboxamide], the DC50 was over 2000 nM and the Dmax turned out to be 3.39%.

`Cc1c(-c2n[nH]c3ncc(-c4ccc(C5CCN(CCc6ccc(C7CCC(=O)NC7=O)cc6)CC5)cc4)cc23)ccc(CNC(=O)c2nc(C(C)(C)C)no2)c1F` (centres unmarked) [Example 19, 3-(tert-butyl)-N-(4-(5-(4-(1-(4-(2,6-dioxopiperidin-3-yl)phenethyl)piperidin-4-yl)phenyl)-1H-pyrazolo[3,4-b]pyridin-3-yl)-2-fluoro-3-methylbenzyl)-1,2,4-oxadiazole-5-carboxamide]: it took 16.9 nM to reach half-maximal degradation (DC50) and the Dmax was determined as 92.8%.

Turning to `Cc1cc(-c2n[nH]c3ncc(-c4ccc(N5CCN(CC6CCN(c7ccc(N8CCC(=O)NC8=O)cc7)CC6)CC5)cc4)cc23)ccc1CNC(=O)c1nc(C(C)(C)C)no1` [Example 20, 3-(tert-butyl)-N-(4-(5-(4-(4-((1-(4-(2,4-dioxotetrahydropyrimidin-1(2H)-yl)phenyl)piperidin-4-yl)methyl)piperazin-1-yl)phenyl)-1H-pyrazolo[3,4-b]pyridin-3-yl)-2-methylbenzyl)-1,2,4-oxadiazole-5-carboxamide], the DC50 came to 3.95 nM and the Dmax is 96.4%.

The compound `Cc1cc(-c2n[nH]c3ncc(-c4ccc(N5CCN(CC6CCN(c7ccc(N8CCC(=O)NC8=O)cc7)CC6)CC5)cc4)cc23)ccc1[C@@H](C)NC(=O)c1nc(C(C)(C)C)no1` [Example 21, (R)-3-(tert-butyl)-N-(1-(4-(5-(4-(4-((1-(4-(2,4-dioxotetrahydropyrimidin-1(2H)-yl)phenyl)piperidin-4-yl)methyl)piperazin-1-yl)phenyl)-1H-pyrazolo[3,4-b]pyridin-3-yl)-2-methylphenyl)ethyl)-1,2,4-oxadiazole-5-carboxamide] displayed a DC50 of 8.62 nM and a maximal degradation (Dmax) of 97.5%.

Turning to `Cc1cc(-c2n[nH]c3ncc(-c4ccc(N5CCN(CC6CCN(c7ccc(N8CCC(=O)NC8=O)cc7)CC6)CC5)cc4)cc23)ccc1CNC(=O)c1noc(C(C)(C)C)n1` [Example 22, 5-(tert-butyl)-N-(4-(5-(4-(4-((1-(4-(2,4-dioxotetrahydropyrimidin-1(2H)-yl)phenyl)piperidin-4-yl)methyl)piperazin-1-yl)phenyl)-1H-pyrazolo[3,4-b]pyridin-3-yl)-2-methylbenzyl)-1,2,4-oxadiazole-3-carboxamide], the DC50 worked out at 9.1 nM and the Dmax came out at 97.6%.

The compound `Cc1cc(-c2n[nH]c3ncc(-c4ccc(C5CCN(CCC6CCN(c7ccc(N8CCC(=O)NC8=O)c(Cl)c7)CC6)CC5)cc4)cc23)ccc1CNC(=O)c1nc(C(C)(C)C)no1` [Example 23, 3-(tert-butyl)-N-(4-(5-(4-(1-(2-(1-(3-chloro-4-(2,4-dioxotetrahydropyrimidin-1(2H)-yl)phenyl)piperidin-4-yl)ethyl)piperidin-4-yl)phenyl)-1H-pyrazolo[3,4-b]pyridin-3-yl)-2-methylbenzyl)-1,2,4-oxadiazole-5-carboxamide] gave a DC50 of 4.04 nM and a Dmax of 96%.

Consider `Cc1cc(-c2n[nH]c3ncc(-c4ccc(C5CCN(CCCOc6ccc(NC7CCC(=O)NC7=O)c(C)c6)CC5)cc4)cc23)ccc1CNC(=O)c1nc(C(C)(C)C)no1` (centres unmarked) [Example 24, 3-(tert-butyl)-N-(4-(5-(4-(1-(3-(4-((2,6-dioxopiperidin-3-yl)amino)-3-methylphenoxy)propyl)piperidin-4-yl)phenyl)-1H-pyrazolo[3,4-b]pyridin-3-yl)-2-methylbenzyl)-1,2,4-oxadiazole-5-carboxamide], for which the DC50 worked out at 4.62 nM and the greatest degradation seen (Dmax) is 97.3%.

Compound `Cc1cc(-c2n[nH]c3ncc(-c4ccc(C5CCN(CCc6ccc(C7CCC(=O)NC7=O)c7ccccc67)CC5)cc4)cc23)ccc1CNC(=O)c1nc(C(C)(C)C)no1` (centres unmarked) [Example 25, 3-(tert-butyl)-N-(4-(5-(4-(1-(2-(4-(2,6-dioxopiperidin-3-yl)naphthalen-1-yl)ethyl)piperidin-4-yl)phenyl)-1H-pyrazolo[3,4-b]pyridin-3-yl)-2-methylbenzyl)-1,2,4-oxadiazole-5-carboxamide] yielded a DC50 of 8.16 nM and a Dmax of 96.7%.

Consider `Cc1cc(-c2n[nH]c3ncc(-c4ccc(C5CCN(CCc6ccc(C7CCC(=O)NC7=O)c7c6CCCC7)CC5)cc4)cc23)ccc1CNC(=O)c1nc(C(C)(C)C)no1` (centres unmarked) [Example 26, 3-(tert-butyl)-N-(4-(5-(4-(1-(2-(4-(2,6-dioxopiperidin-3-yl)-5,6,7,8-tetrahydronaphthalen-1-yl)ethyl)piperidin-4-yl)phenyl)-1H-pyrazolo[3,4-b]pyridin-3-yl)-2-methylbenzyl)-1,2,4-oxadiazole-5-carboxamide], for which the DC50 worked out at 28.9 nM and the Dmax was 94.3%.

For the compound `Cc1cc(-c2n[nH]c3ncc(-c4ccc(C5CCN(CCCOc6ccc(C7CCC(=O)NC7=O)c(C)c6)CC5)cc4)cc23)ccc1CNC(=O)c1nc(C(C)(C)C)no1` (centres unmarked) [Example 27, 3-(tert-butyl)-N-(4-(5-(4-(1-(3-(4-(2,6-dioxopiperidin-3-yl)-3-methylphenoxy)propyl)piperidin-4-yl)phenyl)-1H-pyrazolo[3,4-b]pyridin-3-yl)-2-methylbenzyl)-1,2,4-oxadiazole-5-carboxamide], it took 9.25 nM to reach half-maximal degradation (DC50) and the greatest degradation seen (Dmax) is 95.3%.
